Measurements: the supplement of paper PMC10307832

Key:
Test in all cases: relative viability (nuclei count vs DMSO), 5 days (fraction); higher = more cells survive
IU1-47 + Bortezomib = compound: CC1=CC(=C(N1C2=CC=C(C=C2)Cl)C)C(=O)CN3CCCCC3 [IU1-47] + CC(C)C[C@H](NC(=O)[C@H](Cc1ccccc1)NC(=O)c1cnccn1)B(O)O [Bortezomib] (partner 0.002 µM)
Summary of the method: (§1)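 Lung cancer cell lines in 1536-well plates got either a single drug or a fixed anchor-drug dose together with five library-drug doses (not always all listed) in √10 steps, by pin tool, on the day after seeding. Nuclei were counted after 5 days, and relative viability is the treated-to-vehicle ratio of nuclei counts. Values are medians of duplicate plates.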

IU1-47 + Vorinostat = compound: CC1=CC(=C(N1C2=CC=C(C=C2)Cl)C)C(=O)CN3CCCCC3 [IU1-47] + O=C(CCCCCCC(=O)Nc1ccccc1)NO [Vorinostat] (partner 1 µM)
Summary of the method: as §1

FG-4592 + Phenformin = compound: Cc1nc(C(=O)NCC(=O)O)c(O)c2ccc(Oc3ccccc3)cc12 [FG-4592] + N=C(N)NC(=N)NCCc1ccccc1 [Phenformin] (partner 250 µM)
Summary of the method: as §1

FG-4592 + AZD7762 = compound: Cc1nc(C(=O)NCC(=O)O)c(O)c2ccc(Oc3ccccc3)cc12 [FG-4592] + NC(=O)Nc1cc(-c2cccc(F)c2)sc1C(=O)N[C@H]1CCCNC1 [AZD7762] (partner 0.2 µM)
Summary of the method: as §1

| Cell Line | relative viability (IU1-47 + Bortezomib; first compound 0.08 µM) | relative viability (IU1-47 + Bortezomib; first compound 0.253 µM) | relative viability (IU1-47 + Bortezomib; first compound 0.8 µM) | relative viability (IU1-47 + Bortezomib; first compound 2.53 µM) | relative viability (IU1-47 + Bortezomib; first compound 8 µM) | relative viability (IU1-47 + Vorinostat; first compound 0.08 µM) | relative viability (IU1-47 + Vorinostat; first compound 0.253 µM) | relative viability (IU1-47 + Vorinostat; first compound 0.8 µM) | relative viability (IU1-47 + Vorinostat; first compound 2.53 µM) | relative viability (IU1-47 + Vorinostat; first compound 8 µM) | relative viability (FG-4592 + Phenformin; first compound 0.08 µM) | relative viability (FG-4592 + Phenformin; first compound 0.253 µM) | relative viability (FG-4592 + Phenformin; first compound 0.8 µM) | relative viability (FG-4592 + Phenformin; first compound 2.53 µM) | relative viability (FG-4592 + Phenformin; first compound 8 µM) | relative viability (FG-4592 + AZD7762; first compound 0.08 µM) | relative viability (FG-4592 + AZD7762; first compound 0.253 µM) | relative viability (FG-4592 + AZD7762; first compound 0.8 µM) | relative viability (FG-4592 + AZD7762; first compound 2.53 µM) | relative viability (FG-4592 + AZD7762; first compound 8 µM) |
| --- | --- | --- | --- | --- | --- | --- | --- | --- | --- | --- | --- | --- | --- | --- | --- | --- | --- | --- | --- | --- |
| NCI-H650 | 0.908 | 0.811 | 0.952 | 0.742 | 0.681 | 0.61 | 0.562 | 0.451 | 0.37 | 0.483 | 0.393 | 0.445 | 0.406 | 0.49 | 0.437 | 1.06 | 1.03 | 1.09 | 1.04 | 0.755 |
| NCI-H1734 | 0.936 | 0.93 | 0.906 | – | 0.874 | 0.902 | 0.859 | 0.778 | 0.542 | 0.816 | 0.398 | 0.387 | 0.343 | 0.377 | 0.354 | 0.63 | 0.474 | 0.456 | 0.547 | 0.427 |
| LXF-289 | 0.993 | 1.06 | 1.05 | 1.05 | 0.954 | 0.699 | 0.839 | 0.946 | 0.751 | 0.752 | 0.518 | 0.479 | 0.527 | 0.457 | 0.51 | 1.12 | 1.01 | 1.27 | 1.08 | 1.34 |
| H3255 | 1.15 | 1.12 | 0.766 | 0.793 | 0.619 | 0.918 | 0.883 | 1.02 | – | 0.669 | 0.359 | 0.345 | 0.361 | 0.33 | 0.323 | 0.902 | 0.802 | 0.995 | 0.754 | 0.831 |
| 201T | 1.1 | 1.06 | 1.14 | – | 1.05 | 1.08 | 1.03 | 1.07 | 0.356 | 0.915 | 0.399 | 0.408 | 0.423 | 0.437 | 0.493 | 0.579 | 0.595 | 0.453 | 0.559 | 0.555 |
| NCI-H2126 | 1.17 | 1.18 | 1.19 | 0.894 | 1.04 | 0.895 | 0.775 | 0.801 | 0.478 | 0.731 | 0.554 | 0.5 | 0.51 | 0.492 | 0.461 | 1.04 | 0.951 | 0.918 | 1.06 | 1.01 |
| HOP-62 | 0.926 | 1.05 | 0.701 | 0.753 | 0.77 | 0.693 | 0.675 | 0.752 | 0.433 | 0.532 | 0.601 | 0.654 | 0.672 | 0.657 | 0.665 | 0.501 | 0.509 | 0.476 | 0.472 | 0.529 |
| CAL-12T | 1.05 | 0.946 | 0.945 | 0.972 | 0.802 | 0.826 | 0.759 | 0.711 | 0.747 | 0.841 | 0.593 | 0.51 | 0.56 | 0.546 | 0.542 | 0.594 | 0.59 | 0.513 | 0.523 | 0.717 |
| NCI-H1755 | 1.15 | 1.06 | 1.03 | 1.09 | 0.92 | 0.82 | 0.895 | 0.799 | 0.828 | 0.668 | 0.588 | 0.566 | 0.556 | 0.581 | 0.627 | 0.408 | 0.621 | 0.361 | 0.491 | 0.446 |
